Target: Induced myeloid leukemia cell differentiation protein Mcl-1 (Homo sapiens) (UniProt Q07820)
Test: Mcl-1/Noxa binding inhibitor potency, dose response, biochemical, TR-FRET (AID 1417)
Settings: Mcl-1/Noxa peptide interaction, cell-free TR-FRET (terbium/rhodamine), 2 h; measured here: absolute IC50

Induced myeloid leukemia cell differentiation protein Mcl-1 (Homo sapiens), sequence (Q07820 whole entry, looked up): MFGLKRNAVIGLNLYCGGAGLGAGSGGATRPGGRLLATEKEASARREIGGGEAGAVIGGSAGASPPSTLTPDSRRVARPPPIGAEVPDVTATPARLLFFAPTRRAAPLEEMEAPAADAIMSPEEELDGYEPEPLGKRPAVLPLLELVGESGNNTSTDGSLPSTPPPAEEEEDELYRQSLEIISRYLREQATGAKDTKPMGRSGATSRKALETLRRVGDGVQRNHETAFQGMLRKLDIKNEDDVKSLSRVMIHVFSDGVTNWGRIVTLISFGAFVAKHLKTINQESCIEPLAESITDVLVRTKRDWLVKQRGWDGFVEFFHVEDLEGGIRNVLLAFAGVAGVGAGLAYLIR

| Compound | IC50 [µM] |
| --- | --- |
| COc1ccccc1C1=Nc2cccc3cccc(c23)N1 | > 54 |
| CN(C)c1ccc(NC(=O)c2cccc(C(=O)Nc3ccc(N(C)C)cc3)n2)cc1 | 4.03 |
| Cc1nnc(Sc2cc(NCCO)c([N+](=O)[O-])c3nonc23)s1 | < 0.4 |
| O=C(O)CCn1cc(C=C2C(=O)NC(=S)NC2=O)c(-c2cccc(Cl)c2)n1 | 1.81 |
| Oc1cc2c(cc1C(c1ccc(Cl)c(Cl)c1)N1CCCC1)OCO2 (stereo not given) | > 54 |
| Fc1cccc(NC(=S)NNc2c3ccccc3nc3ccccc23)c1 | 3.31 |
| O=[N+]([O-])c1ccc2[nH]c(O)c(N=NC(=S)Nc3cccnc3)c2c1 | 8.86 |
| CC(=O)c1ccc(-n2c(CCC(=O)O)ccc2-c2cccs2)cc1 | > 54 |
| O=C(Cc1cccs1)N/N=C/C=C\c1ccco1 | > 54 |
| O=C(/C=C/c1ccco1)Nc1ccc2nn(-c3ccccc3)nc2c1 | 3.24 |
| Cc1ccc(NC(=O)CN2C(=O)S/C(=C\c3cccn3-c3cccc(C(=O)O)c3)C2=O)c(C)c1 | 13.1 |
| Cc1ccc(NC(=O)CN2C(=O)N/C(=C/c3cc(C)n(-c4ccc(C(=O)O)cc4)c3C)C2=O)cc1 | 5.14 |
| O=C(O)CC(CCc1ccccc1)OC1OC(CO)C(O)C(O)C1O (stereo not given) | < 0.4 |
| NC(=O)c1c(Nc2nc3c(F)cccc3s2)sc2c1CCCC2 | < 0.4 |
| Cc1nc(C)c(C(=O)Nc2nc3c(C)cccc3s2)o1 | 2.63 |
| CCC1CCCCN1S(=O)(=O)c1ccc(S(=O)(=O)N(Cc2ccccn2)CC2CCCO2)cc1 (stereo not given) | > 54 |
| CC(/C=N\Nc1nnc2c(n1)[nH]c1c(C)cccc12)=C\c1ccco1 | 3.57 |
| COc1ccc(C(=O)n2nc(C)c(Br)c2C)cc1 | > 54 |
| Nc1cccnc1Sc1cc(Cl)c(Cl)cc1Cl | > 54 |
| CC1=C(C#N)C(=O)NC(=O)/C1=C\c1ccc(-c2ccc(C)cc2[N+](=O)[O-])o1 | < 0.4 |
| COc1ccc(CN2C(=O)NC(=O)/C(=C/c3ccc([N+](=O)[O-])o3)C2=O)cc1 | 2.81 |
| O=C1C=CC(=O)C(C2=C3C(=O)N(CCc4ccccc4)CC(=O)N3CCC2)=C1 | > 54 |
| CCc1nn2c(=O)cc(COc3ccc(/C=C4\C(=N)N5N=C(C)SC5=NC4=O)cc3)nc2s1 | 3.78 |
| O=C(O)C[C@@H]1C(=O)O[C@@H]2C(COC(=O)c3cc(O)c(O)c(O)c3)O[C@@H](OC(=O)c3cc(O)c(O)c(O)c3)[C@@H](OC(=O)c3cc(O)c(O)c4c3[C@H]1[C@H](O)C(=O)O4)[C@H]2OC(=O)c1cc(O)c(O)c(O)c1 (stereo not given in full) | < 0.4 |
| CN(C)c1ccc(NC(=O)Nc2ccc3snnc3c2)cc1 | < 0.4 |

| Compound | IC50 [µM] |
| --- | --- |
| O=c1/c(=C\c2cc([N+](=O)[O-])cc([N+](=O)[O-])c2O)sc2nc3ccccc3n12 | < 0.4 |
| Cc1ccc(-c2cc(C(=O)OCC(=O)N(C)C3CCS(=O)(=O)C3)c3ccccc3n2)o1 (stereo not given) | 2.98 |
| CCOC(=O)N1CCN(c2c(NCCCN(CC)Cc3ccccc3)c(=O)c2=O)CC1 | 4.06 |
| CCc1ccc2nc3sc(C(=O)Nc4nnc(CC)s4)c(N)c3cc2c1 | > 54 |
| O=C(Cn1nc(C(=O)O)c2ccccc2c1=O)Nc1ccc2c(c1)C(=O)c1ccccc1C2=O | 4.62 |
| COc1ccc(C(=O)c2sc3nc(-c4ccc(OC)cc4)ccc3c2N)cc1 | > 54 |
| CC(=O)c1ccc(NC(=O)CSc2nnc(-c3ccco3)c(-c3ccco3)n2)cc1 | 5.96 |
| Cc1ccc(-c2nnc3ccc(SC(C)C(=O)O)nn23)cc1 (stereo not given) | 4.71 |
| C=CCc1c(C)nc(SCCC)[nH]c1=O | > 54 |
| CC(C)c1nc2sc3c(=O)[nH]c(=S)[nH]c3c2c2c1CCC2 | 7.39 |
| COc1ccc(-c2csc(Nc3ccccc3)n2)cc1 | > 54 |
| O=C1CCCC2=C1C(c1ccc(O)c(O)c1)Nc1ccc3ncccc3c12 (stereo not given) | < 0.4 |
| O=[N+]([O-])c1ccccc1/C=C/C=N/n1c(-c2ccccc2)n[nH]c1=S | > 54 |
| Cc1cccc(-c2nc(Nc3ccc(N4CCOCC4)cc3)c3ccccc3n2)c1 | < 0.4 |
| CCC1=NN2C(=N)/C(=C\c3ccc(OCc4cc(=O)n5nc(CC)sc5n4)c(OC)c3)C(=O)N=C2S1 | 2.31 |
| CN(C)c1ccc(NC(=O)Cn2ncn3c(cc4ccccc43)c2=O)cc1 | 3.42 |
| COc1ccccc1N1C(=O)C2ON(c3ccccc3)C(c3ccc(N(C)C)cc3)C2C1=O (stereo not given) | > 54 |
| COc1cc(/C=C/C(=O)OCC(=O)Nc2cc(C)c(C)cc2[N+](=O)[O-])ccc1O | 2.4 |
| O=C(O)c1ccc(-n2cccc2/C=C2/NC(=O)N(c3cccc(Cl)c3)C2=O)cc1 | < 0.4 |
| Nc1nc(=S)c2ncn(C3OC(CO)C(O)C3O)c2[nH]1 (stereo not given) | 9.52 |
| COc1ccc2[nH]c3c(C)c4ccncc4c(C)c3c2c1 | < 0.4 |
| Cc1cccc(C(=O)NC(=S)NNC(=O)c2ccc(Cl)cc2)c1 | > 54 |
| O=C(/C=C1\NC2(CCCC2)Cc2ccccc21)C(=O)N/N=C/c1ccc(O)c(O)c1 | 3.47 |
| Cc1cccc2cc(/C=N/NC(=O)c3ccccc3O)c(Cl)nc12 | 6.09 |
| O=C(O)COc1ccc(/C=N/NC(=O)c2ccc(-c3csc(Nc4ccc(Cl)cc4)n3)cc2)cc1 | 0.784 |

| Compound | IC50 [µM] |
| --- | --- |
| CCOc1ccc(C2C3=C(Nc4nc(N)[nH]c(=O)c42)c2ccccc2C3=O)cc1 (stereo not given) | 23.3 |
| CCOc1ccccc1Nc1nc(-c2sc(NC(=O)c3ccc([N+](=O)[O-])cc3)nc2C)cs1 | < 0.4 |
| Cc1cccc(NC(=O)CSc2nnc(-c3ccco3)c(-c3ccco3)n2)c1 | 6.58 |
| CC(=O)c1ccc(NC(=O)CSc2ccsc2[N+](=O)[O-])cc1 | > 54 |
| COc1ccc(-c2ccc(/C=C3/C(=N)N4C=CSC4=NC3=O)o2)c([N+](=O)[O-])c1 | 1.66 |
| CCOC(=O)C1=C(C)NC2=C(C(=O)CC(C)(C)C2)C1c1ccc2c(c1)CCCN2C (stereo not given) | > 54 |
| O=C1SC(SCc2ccccc2Cl)=N/C1=C\c1ccc(C(=O)O)cc1 | 4.67 |
| CCOC(=O)c1c(C)oc2c1c(C(c1ccncc1)N1CCOCC1)c(O)c1ccccc12 (stereo not given) | < 0.4 |
| CNC(=O)NC1CCCc2ccccc21 (stereo not given) | > 54 |
| Nc1nc2c(c(=O)[nH]1)C(c1cccc3ccccc13)C1=C(N2)c2ccccc2C1=O (stereo not given) | 4.17 |
| CC1CCCCC12NC(=O)N(CC(=O)Nc1sc3c(c1C(N)=O)CCC3)C2=O (stereo not given) | 3.97 |
| CCn1nc([N+](=O)[O-])c(C(C#N)c2nc3cc(C(F)(F)F)ccc3s2)c(Cl)c1=O (stereo not given) | 3.15 |
| CN(C)c1ccc(NC(=O)/C=C/c2c(Cl)cccc2Cl)cc1 | > 54 |
| O=c1cc(/N=C/c2coc3c(ccc4ccccc43)c2=O)[nH]c(=S)[nH]1 | 4.08 |
| COc1ccc(-c2csc(NC(=S)NC(=O)c3cccs3)n2)cc1OC | 3.31 |
| CCCCc1[nH]nc2c1C1(C(=O)N(CC)c3ccccc31)C(C#N)=C(N)O2 (stereo not given) | > 54 |
| CC(C)(C)c1cc(-c2csc(Nc3ccccc3)[n+]2Cc2ccc(C(=O)O)cc2)cc(C(C)(C)C)c1O | 1.32 |
| Cc1cc(C)c2oc(C(=O)Nc3ccc(S(=O)(=O)Nc4nccs4)cc3)cc(=O)c2c1 | 4.58 |
| O=C1Oc2ccccc2C(=O)/C1=C/c1ccccc1O | 3.62 |
| CCOc1ccc(/C=C/[N+](=O)[O-])c2ccccc12 | 1.7 |
| COc1ccc(-c2ccc(/C=N/NC(=O)c3cccnc3)o2)c([N+](=O)[O-])c1 | 4.32 |
| O=C(N=Nc1c(O)n(Cc2ccccc2)c2ccccc12)c1cc2ccccc2cc1O | 4.76 |
| Cc1cccn2c(=O)c3cc(C(=O)NCc4ccco4)c(=N)n(CCc4ccccc4)c3nc12 | 3.15 |
| CN(C)c1ccc(NC(=O)Nc2cccc(Cl)c2)cc1 | < 0.4 |
| Cc1ccc(N2CC(C(=O)Nc3ccc(N(C)C)cc3)CC2=O)cc1C (stereo not given) | > 54 |

— PubChem BioAssay AID1417 (Emory University Molecular Libraries Screening Center, 2008)
